Patent publication US9181266B2, “2-piperidin-1-yl-acetamide compounds for use as tankyrase inhibitors” (NOVARTIS AG, priority 2011, dated 2015)

Key:
[1] = target: human tankyrase 1 PARP catalytic domain, TNKS1P (Homo sapiens (Human), UniProt O95271); assay: TNKS1 autoparsylation assay (LC/MS detection of nicotinamide); conditions: read-out: TNKS1 AP IC50, 20 nM enzyme, 250 μM β-NAD+, 60 min
[2] = target: PARP2 (Mus musculus (Mouse), UniProt O88554); assay: PARP2 autoparsylation assay (LC/MS detection of nicotinamide); type: biochemical; conditions: 20 nM enzyme, 250 μM β-NAD+, 60 min
PARP2, sequence (O88554 whole entry): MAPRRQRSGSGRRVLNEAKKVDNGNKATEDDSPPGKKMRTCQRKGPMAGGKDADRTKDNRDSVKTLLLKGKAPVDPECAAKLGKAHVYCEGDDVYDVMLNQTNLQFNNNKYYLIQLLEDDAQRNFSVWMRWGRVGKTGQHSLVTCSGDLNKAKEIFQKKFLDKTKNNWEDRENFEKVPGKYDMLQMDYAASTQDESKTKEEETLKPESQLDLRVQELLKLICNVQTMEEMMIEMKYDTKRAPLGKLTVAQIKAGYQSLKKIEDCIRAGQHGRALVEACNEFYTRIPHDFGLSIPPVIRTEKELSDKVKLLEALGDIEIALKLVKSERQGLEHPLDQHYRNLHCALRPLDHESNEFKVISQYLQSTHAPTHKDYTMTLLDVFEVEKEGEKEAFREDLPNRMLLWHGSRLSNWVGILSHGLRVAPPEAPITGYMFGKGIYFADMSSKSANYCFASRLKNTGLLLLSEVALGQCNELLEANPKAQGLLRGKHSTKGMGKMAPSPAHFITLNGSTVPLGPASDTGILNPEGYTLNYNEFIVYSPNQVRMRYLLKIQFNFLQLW
Experimental: (§1) The autoparsylation activity of the TNKS 1/2 or PARP1/2 enzymes was measured by the liquid chromatography-mass spectrometry (LC/MS) detection of nicotinamide as readout. Compound activity in inhibiting the TNKS and PARP autoparsylation was evaluated by IC50 measurements.

[3] = test system: Non-small lung cancer ABC-1 cells; assay: Cellular proliferation assay (CellTiter-Glo); type: cell-based; conditions: Homo sapiens, 72 h; ABC-1 cells, 3 days of compound treatment; read-out: ABC-1 IC50
Experimental: Cellular Proliferation Assay to Determine Compound Inhibition of Cancer Cell Growth
Viable cells were measured after 3 days of compound treatment using the CellTiter-Glo assay (Promega, G7570). Assay was performed following the manufacture protocol.

[4] = target: tankyrase 2 protein PARP domain, TNKS2P (Homo sapiens (Human), UniProt Q9H2K2); assay: TNKS2 autoparsylation assay (LC/MS detection of nicotinamide); conditions: read-out: TNKS2 AP IC50, 20 nM enzyme, 250 μM β-NAD+, 60 min
tankyrase 2 protein PARP domain, TNKS2P, sequence (Q9H2K2 959-1164): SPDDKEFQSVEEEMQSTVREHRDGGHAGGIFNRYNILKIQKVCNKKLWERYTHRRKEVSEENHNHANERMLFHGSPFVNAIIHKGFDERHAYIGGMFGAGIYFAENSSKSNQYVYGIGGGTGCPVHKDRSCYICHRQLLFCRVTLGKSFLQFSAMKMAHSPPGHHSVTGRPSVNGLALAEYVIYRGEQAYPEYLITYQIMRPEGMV

[5] = test system: Wnt ligand-induced signaling in HEK293 cells; assay: Wnt-responsive Super-TOpFlash (STF) luciferase reporter gene assay; type: cell-based; conditions: Homo sapiens, Wnt3A condition medium
Procedure, shortened: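 HEK293 cells (8000/well, 5% FBS medium) treated with 20% mouse L-cell Wnt3A conditioned medium plus compounds in 10-point serial dilution; luciferase read next day. Inhibition calculated relative to Wnt3A-induced signal without compound and background without Wnt3A CM or compound.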

[6] = test system: Axin2 protein in SW480 cells; assay: Cellular ELISA assay of Axin2 protein stabilization; type: cell-based; conditions: Homo sapiens, 24 hrs, read-out: Axin AC50
Procedure, shortened: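 SW480 colorectal cells seeded overnight, treated with compound, then lysed. Axin2 in lysates measured by sandwich ELISA: anti-Axin2 capture antibody coated at 1 μg/ml (pH 9.2), lysate 2 h at room temperature, biotinylated anti-Axin2 detection 2 h, then streptavidin-HRP 30 min.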

[7] = target: Human PARP1 (Homo sapiens (Human), UniProt P09874); assay: PARP1 autoparsylation assay (LC/MS detection of nicotinamide); type: biochemical; conditions: 20 nM enzyme, 250 μM β-NAD+, 60 min
Human PARP1, sequence (P09874 whole entry): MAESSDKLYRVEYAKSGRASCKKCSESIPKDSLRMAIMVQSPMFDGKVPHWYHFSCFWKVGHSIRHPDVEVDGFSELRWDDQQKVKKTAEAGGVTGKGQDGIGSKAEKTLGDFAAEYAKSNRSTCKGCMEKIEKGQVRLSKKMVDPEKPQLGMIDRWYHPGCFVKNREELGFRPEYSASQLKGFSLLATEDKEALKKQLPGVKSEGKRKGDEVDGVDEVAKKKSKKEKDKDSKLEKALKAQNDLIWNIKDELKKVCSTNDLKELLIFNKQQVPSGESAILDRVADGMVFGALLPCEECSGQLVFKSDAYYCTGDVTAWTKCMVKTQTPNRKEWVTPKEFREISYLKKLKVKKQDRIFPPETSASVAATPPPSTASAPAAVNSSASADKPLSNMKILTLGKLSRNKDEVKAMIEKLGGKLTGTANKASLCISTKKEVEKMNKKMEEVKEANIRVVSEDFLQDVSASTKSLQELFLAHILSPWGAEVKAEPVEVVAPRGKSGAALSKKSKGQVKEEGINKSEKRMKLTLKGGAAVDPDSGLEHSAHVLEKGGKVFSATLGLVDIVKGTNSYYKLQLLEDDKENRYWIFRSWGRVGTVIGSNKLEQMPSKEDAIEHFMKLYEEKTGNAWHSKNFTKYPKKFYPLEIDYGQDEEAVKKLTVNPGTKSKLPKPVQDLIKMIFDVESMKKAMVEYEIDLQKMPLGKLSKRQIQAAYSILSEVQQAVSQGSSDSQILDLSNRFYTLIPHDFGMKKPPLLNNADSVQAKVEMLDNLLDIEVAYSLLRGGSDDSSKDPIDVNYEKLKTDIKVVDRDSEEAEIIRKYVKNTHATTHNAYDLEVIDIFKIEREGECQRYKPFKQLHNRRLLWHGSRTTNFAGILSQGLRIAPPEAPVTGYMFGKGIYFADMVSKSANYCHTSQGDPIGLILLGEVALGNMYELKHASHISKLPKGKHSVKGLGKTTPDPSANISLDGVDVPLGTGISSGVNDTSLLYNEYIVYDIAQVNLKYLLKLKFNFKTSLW
Experimental: as §1

human tankyrase 1 PARP catalytic domain, TNKS1P, sequence (O95271 1112-1317): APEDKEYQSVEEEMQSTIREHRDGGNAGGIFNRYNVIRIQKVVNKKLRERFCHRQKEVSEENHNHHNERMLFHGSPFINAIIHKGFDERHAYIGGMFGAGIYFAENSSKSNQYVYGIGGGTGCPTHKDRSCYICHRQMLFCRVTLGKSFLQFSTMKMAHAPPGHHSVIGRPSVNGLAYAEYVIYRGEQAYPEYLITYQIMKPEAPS

SMILES	IC50 [1] [nM]	IC50 [2] [nM]	IC50 [3] [nM]	IC50 [4] [nM]	IC50 [5] [nM]	AC50 [6] [nM]	IC50 [7] [nM]
O=C(CN1CCC(C(=O)c2ccc(Cl)cc2)CC1)NCc1nc2c(c(=O)[nH]1)COCC2 [Example 2, 2-[4-(4-Chloro-benzoyl)-piperidin-1-yl]-N-(4-oxo-3,5,7,8-tetrahydro-4H-pyrano[4,3-d]-pyrimidin-2-ylmethyl)-acetamide]	37 ± 2	2590 ± 290	393	7	10 ± 2	205 ± 61	9100 ± 1000
CC(C)Oc1ccc(C(=O)C2CCN(CC(=O)NCc3nc4c(c(=O)[nH]3)COCC4)CC2)cc1 [Example 3, 2-[4-(4-Isopropoxy-benzoyl)-piperidin-1-yl]-N-(4-oxo-3,5,7,8-tetrahydro-4H-pyrano[4,3-c]pyrimidin-2-ylmethyl)-acetamide]	35 ± 9	2100 ± 240	105	14 ± 1	23 ± 2	62 ± 16	5630 ± 730
O=C(CN1CCC(C(=O)c2ccc(F)cc2)CC1)NCc1nc2c(c(=O)[nH]1)CCCC2 [Example 10, 2-(4-(4-Fluorobenzoyl)piperidin-1-yl)-N-((4-oxo-3,4,5,6,7,8-hexahydroquinazolin-2-yl)methyl)acetamide]	55 ± 3	700 ± 80	393	36 ± 2	27 ± 15	479 ± 24	2700 ± 800
O=C(c1ccc(F)cc1)C1CCN(CC(=O)N(Cc2nc3c(c(=O)[nH]2)COCC3)CC2CC2)CC1 [Example 24, N-Cyclopropylmethyl-2-[4-(4-fluoro-benzoyl)-piperidin-1-yl]-N-(4-oxo-3,5,7,8-tetrahydro-4H-pyrano[4,3-d]pyrimidin-2-ylmethyl)-acetamide]	35 ± 10	> 19000	276 ± 37			320 ± 180	> 19000
N#Cc1ccc(CN(Cc2nc3c(c(=O)[nH]2)COCC3)C(=O)CN2CCC(C(=O)c3ccc(F)cc3)CC2)s1 [Example 46, N-(5-Cyano-thiophen-2-ylmethyl)-2-[4-(4-fluoro-benzoyl)-piperidin-1-yl]-N-(4-oxo-3,5,7,8-tetrahydro-4H-pyrano[4,3-d]pyrimidin-2-ylmethyl)-acetamide]	53 ± 4	> 19000		16 ± 1.4	36 ± 8	275 ± 84	> 19000
O=C(CN1CCC2(CC1)Cc1cc(F)ccc1C2=O)NCc1nc2c(c(=O)[nH]1)COCC2 [Example 61, 2-(5-Fluoro-1-oxo-1,3-dihydrospiro[indene-2,4′-piperidine]-1′-yl)-N-((4-oxo-4,5,7,8-tetrahydro-3H-pyrano[4,3-d]pyrimidin-2-yl)methyl)acetamide]	25 ± 6	> 19000	8120	8 ± 2.6	1600 ± 800		6500 ± 1700
CCOc1ccc(C(=O)C2CCN(CC(=O)NCc3nc4c(c(=O)[nH]3)COCC4)CC2)cc1 [Example 66, 2-(4-(4-Ethoxybenzoyl)piperidin-1-yl)-N-((4-oxo-4,5,7,8-tetrahydro-3H-pyrano[4,3-d]pyrimidin-2-yl)methyl)acetamide]	27 ± 10	3200 ± 1000		9 ± 7	5690 ± 170	> 10000	6500 ± 1300
COc1cccc(C(=O)C2CCN(CC(=O)N(Cc3nc4c(c(=O)[nH]3)COCC4)CC(F)F)CC2)c1 [Example 73, N-(2,2-Difluoro-ethyl)-2-[4-(3-methoxy-benzoyl)-piperidin-1-yl]-N-(4-oxo-3,5,7,8-tetrahydro-4H-pyrano[4,3-d]pyrimidin-2-ylmethyl)-acetamide]	49 ± 1	> 19000		16 ± 2	470 ± 150	> 10000	> 19000
